According to ChEMBL document CHEMBL3407340, “Synthesis, radiolabeling and evaluation of novel 4-oxo-quinoline derivatives as PET tracers for imaging cannabinoid type 2 receptor” (Eur J Med Chem, 2015):

Tests used:
Cannabinoid receptor 1 = Cannabinoid receptor 1 (Homo sapiens, UniProt P21554); experiment: Displacement of [3H]-CP-55940 from human CB1 receptor transfected in CHOK1 cells after 90 mins by liquid scintillation counting analysis; assay type: cell-based, CHO-K1
[1] = Drug uptake in human lumbar spinal cord at 0.4 nM after 15 mins by autoradiography; assay type: ADME, tissue-based; conditions: 0.25 h, 0.0004 µM
Zone of skin [2] = experiment: Biodistribution in Wistar rat skin at 5 to 10 MBq, iv after 15 mins by gamma counting analysis; assay type: ADME, organism-based; conditions: in vivo, 0.25 h
Adrenal gland [3] = experiment: Biodistribution in Wistar rat adrenal gland at 5 to 10 MBq, iv after 15 mins by gamma counting analysis in presence of GW405883; assay type: ADME, organism-based; conditions: in vivo, 0.25 h
Cerebellum [4] = experiment: Drug uptake in LPS-treated mouse cerebellum at 10 to 18 MBq, iv by PET imaging analysis; assay type: ADME, organism-based; conditions: in vivo
Blood [5] = experiment: Biodistribution in Wistar rat blood at 5 to 10 MBq, iv after 15 mins by gamma counting analysis; assay type: ADME, organism-based; conditions: in vivo, 0.25 h
[6] = Biodistribution in Wistar rat urine at 5 to 10 MBq, iv after 15 mins by gamma counting analysis; assay type: ADME, organism-based; conditions: in vivo, 0.25 h
Bone [7] = experiment: Biodistribution in Wistar rat bone at 5 to 10 MBq, iv after 15 mins by gamma counting analysis; assay type: ADME, organism-based, Bone element; conditions: in vivo, 0.25 h
Small intestine [8] = experiment: Biodistribution in Wistar rat small intestine at 5 to 10 MBq, iv after 15 mins by gamma counting analysis; assay type: ADME, organism-based; conditions: in vivo, 0.25 h
Plasma [9] = experiment: Stability in mouse plasma after 40 mins; assay type: ADME, cell-free
Rattus norvegicus [10] = experiment: Biodistribution in Wistar rat thyroid gland at 5 to 10 MBq, iv after 15 mins by gamma counting analysis in presence of GW405883; assay type: ADME, organism-based; conditions: in vivo, 0.25 h
Kidney [11] = experiment: Biodistribution in Wistar rat kidneys at 5 to 10 MBq, iv after 15 mins by gamma counting analysis; assay type: ADME, organism-based; conditions: in vivo, 0.25 h
Liver [12] = experiment: Biodistribution in Wistar rat liver at 5 to 10 MBq, iv after 15 mins by gamma counting analysis; assay type: ADME, organism-based; conditions: in vivo, 0.25 h
Brain [13] = experiment: Drug uptake in LPS-treated mouse whole brain at 10 to 18 MBq, iv by PET imaging analysis in presence of […]; assay type: ADME, organism-based; conditions: in vivo
Pancreas [14] = experiment: Biodistribution in Wistar rat pancreas at 5 to 10 MBq, iv after 15 mins by gamma counting analysis; assay type: ADME, organism-based; conditions: in vivo, 0.25 h
Brain [15] = experiment: Biodistribution in Wistar rat brain at 5 to 10 MBq, iv after 15 mins by gamma counting analysis in presence of GW405883; assay type: ADME, organism-based; conditions: in vivo, 0.25 h
Bone [16] = experiment: Biodistribution in Wistar rat bone at 5 to 10 MBq, iv after 15 mins by gamma counting analysis in presence of GW405883; assay type: ADME, organism-based, Bone element; conditions: in vivo, 0.25 h
[17] = Drug metabolism in Wistar rat plasma assessed as parent compound remaining at 115 to 163 MBq, iv after 10 mins; assay type: ADME, organism-based; conditions: read-out: Stability
Cortex [18] = experiment: Drug uptake in LPS-treated mouse cortex at 10 to 18 MBq, iv by PET imaging analysis in presence of […]; assay type: ADME, organism-based; conditions: in vivo
[19] = Drug metabolism in Wistar rat plasma assessed as parent compound remaining at 115 to 163 MBq, iv after 5 mins; assay type: ADME, organism-based; conditions: read-out: Stability
Spleen [20] = experiment: Biodistribution in Wistar rat spleen at 5 to 10 MBq, iv after 15 mins by gamma counting analysis in presence of GW405883 relative to control; assay type: ADME, organism-based; conditions: in vivo, 0.25 h
[21] = Drug uptake in human cervical spinal cord at 0.4 nM after 15 mins by autoradiography; assay type: ADME, tissue-based; conditions: 0.25 h, 0.0004 µM
Rattus norvegicus [22] = experiment: Biodistribution in Wistar rat thyroid gland at 5 to 10 MBq, iv after 15 mins by gamma counting analysis; assay type: ADME, organism-based; conditions: in vivo, 0.25 h
Liver [23] = experiment: Biodistribution in Wistar rat liver at 5 to 10 MBq, iv after 15 mins by gamma counting analysis in presence of GW405883; assay type: ADME, organism-based; conditions: in vivo, 0.25 h
[24] = Biodistribution in Wistar rat urine at 5 to 10 MBq, iv after 15 mins by gamma counting analysis in presence of GW405883; assay type: ADME, organism-based; conditions: in vivo, 0.25 h
Heart [25] = experiment: Biodistribution in Wistar rat heart at 5 to 10 MBq, iv after 15 mins by gamma counting analysis in presence of GW405883; assay type: ADME, organism-based; conditions: in vivo, 0.25 h
Muscle tissue [26] = experiment: Biodistribution in Wistar rat muscle at 5 to 10 MBq, iv after 15 mins by gamma counting analysis; assay type: ADME, organism-based; conditions: in vivo, 0.25 h
Cortex [27] = experiment: Drug uptake in LPS-treated mouse cortex at 10 to 18 MBq, iv by PET imaging analysis; assay type: ADME, organism-based; conditions: in vivo
Hippocampus [28] = experiment: Drug uptake in LPS-treated mouse hippocampus at 10 to 18 MBq, iv by PET imaging analysis; assay type: ADME, organism-based; conditions: in vivo
Brain [29] = experiment: Drug uptake in LPS-treated mouse brain at 0.2 nM, iv after 5 days by PET imaging analysis in presence of GW405883 relative to control; assay type: ADME, organism-based; conditions: in vivo, 120 h, 0.0002 µM
Brain [30] = experiment: Drug uptake in LPS-treated mouse brain at 0.2 nM, iv after 5 days by PET imaging analysis relative to vehicle-treated control; assay type: ADME, organism-based; conditions: in vivo, 120 h, 0.0002 µM
Zone of skin [31] = experiment: Biodistribution in Wistar rat skin at 5 to 10 MBq, iv after 15 mins by gamma counting analysis in presence of GW405883; assay type: ADME, organism-based; conditions: in vivo, 0.25 h
Blood [32] = experiment: Biodistribution in Wistar rat blood at 5 to 10 MBq, iv after 15 mins by gamma counting analysis in presence of GW405883; assay type: ADME, organism-based; conditions: in vivo, 0.25 h
Rattus norvegicus [33] = experiment: Biodistribution in Wistar rat fat at 5 to 10 MBq, iv after 15 mins by gamma counting analysis; assay type: ADME, organism-based, Adipose tissue; conditions: in vivo, 0.25 h
Plasma [34] = experiment: Stability in human plasma after 40 mins; assay type: ADME, cell-free
Pancreas [35] = experiment: Biodistribution in Wistar rat pancreas at 5 to 10 MBq, iv after 15 mins by gamma counting analysis in presence of GW405883; assay type: ADME, organism-based; conditions: in vivo, 0.25 h
Kidney [36] = experiment: Biodistribution in Wistar rat kidneys at 5 to 10 MBq, iv after 15 mins by gamma counting analysis in presence of GW405883; assay type: ADME, organism-based; conditions: in vivo, 0.25 h
Rattus norvegicus [37] = experiment: Biodistribution in Wistar rat testis at 5 to 10 MBq, iv after 15 mins by gamma counting analysis in presence of GW405883; assay type: ADME, organism-based; conditions: in vivo, 0.25 h
Brain [38] = experiment: Biodistribution in Wistar rat brain at 5 to 10 MBq, iv after 15 mins by gamma counting analysis; assay type: ADME, organism-based; conditions: in vivo, 0.25 h
Cerebellum [39] = experiment: Drug uptake in LPS-treated mouse cerebellum at 10 to 18 MBq, iv by PET imaging analysis in presence of GW405883; assay type: ADME, organism-based; conditions: in vivo
Lung [40] = experiment: Biodistribution in Wistar rat lung at 5 to 10 MBq, iv after 15 mins by gamma counting analysis in presence of GW405883; assay type: ADME, organism-based; conditions: in vivo, 0.25 h
Spleen [41] = experiment: Biodistribution in Wistar rat spleen at 5 to 10 MBq, iv after 15 mins by gamma counting analysis; assay type: ADME, organism-based; conditions: in vivo, 0.25 h
Plasma [42] = experiment: Stability in rat plasma after 40 mins; assay type: ADME, cell-free
[43] = Drug metabolism in Wistar rat plasma assessed as parent compound remaining at 115 to 163 MBq, iv after 20 mins; assay type: ADME, organism-based; conditions: read-out: Stability
Hippocampus [44] = experiment: Drug uptake in LPS-treated mouse hippocampus at 10 to 18 MBq, iv by PET imaging analysis in presence of […]; assay type: ADME, organism-based; conditions: in vivo
Rattus norvegicus [45] = experiment: Biodistribution in Wistar rat testis at 5 to 10 MBq, iv after 15 mins by gamma counting analysis; assay type: ADME, organism-based; conditions: in vivo, 0.25 h
Heart [46] = experiment: Biodistribution in Wistar rat heart at 5 to 10 MBq, iv after 15 mins by gamma counting analysis; assay type: ADME, organism-based; conditions: in vivo, 0.25 h
Adrenal gland [47] = experiment: Biodistribution in Wistar rat adrenal gland at 5 to 10 MBq, iv after 15 mins by gamma counting analysis; assay type: ADME, organism-based; conditions: in vivo, 0.25 h
Brain [48] = experiment: Drug uptake in LPS-treated mouse whole brain at 10 to 18 MBq, iv by PET imaging analysis; assay type: ADME, organism-based; conditions: in vivo
[49] = Drug metabolism in Wistar rat spleen assessed as parent compound remaining at 115 to 163 MBq, iv after 20 mins; assay type: ADME, organism-based; conditions: read-out: Stability
Small intestine [50] = experiment: Biodistribution in Wistar rat small intestine at 5 to 10 MBq, iv after 15 mins by gamma counting analysis in presence of GW405883; assay type: ADME, organism-based; conditions: in vivo, 0.25 h
[51] = Partition coefficient, log D of the compound in n-octanol/phosphate buffer at pH 7.4 after 15 mins by shake flask method; assay type: physicochemical
Muscle tissue [52] = experiment: Biodistribution in Wistar rat muscle at 5 to 10 MBq, iv after 15 mins by gamma counting analysis in presence of GW405883; assay type: ADME, organism-based; conditions: in vivo, 0.25 h
Spleen [53] = experiment: Biodistribution in Wistar rat spleen at 5 to 10 MBq, iv after 15 mins by gamma counting analysis in presence of GW405883; assay type: ADME, organism-based; conditions: in vivo, 0.25 h
Rattus norvegicus [54] = experiment: Biodistribution in Wistar rat fat at 5 to 10 MBq, iv after 15 mins by gamma counting analysis in presence of GW405883; assay type: ADME, organism-based, Adipose tissue; conditions: in vivo, 0.25 h
Lung [55] = experiment: Biodistribution in Wistar rat lung at 5 to 10 MBq, iv after 15 mins by gamma counting analysis; assay type: ADME, organism-based; conditions: in vivo, 0.25 h

Cannabinoid receptor 1, sequence (P21554 whole entry): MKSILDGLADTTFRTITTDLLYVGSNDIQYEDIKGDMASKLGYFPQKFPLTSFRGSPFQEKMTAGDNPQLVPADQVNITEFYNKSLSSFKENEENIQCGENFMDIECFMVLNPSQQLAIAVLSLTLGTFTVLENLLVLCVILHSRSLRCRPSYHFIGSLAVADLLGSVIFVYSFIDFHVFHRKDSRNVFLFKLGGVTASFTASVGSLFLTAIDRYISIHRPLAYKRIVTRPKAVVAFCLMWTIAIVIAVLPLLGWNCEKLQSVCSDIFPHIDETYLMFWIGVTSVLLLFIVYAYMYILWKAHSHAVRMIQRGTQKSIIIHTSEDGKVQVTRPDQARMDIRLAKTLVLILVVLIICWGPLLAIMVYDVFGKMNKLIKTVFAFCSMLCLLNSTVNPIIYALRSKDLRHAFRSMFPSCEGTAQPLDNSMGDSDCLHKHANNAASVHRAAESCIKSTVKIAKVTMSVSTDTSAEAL

## CCCCCn1cc(C(=O)NC23CC4CC(CC(C4)C2)C3)c(=O)c2cccc(OC)c21
Cannabinoid receptor 1
  Ki: > 10 µM

## CCOCCn1cc(C(=O)NC23CC4CC(CC(C4)C2)C3)c(=O)c2cccc(O[11CH3])c21
[1]
  Drug uptake: Active
Zone of skin [2]
  Drug uptake: 0.05 % ID/g
Adrenal gland [3]
  Drug uptake: 0.262 % ID/g
Cerebellum [4]
  Drug uptake: Active
Blood [5]
  Drug uptake: 0.044 % ID/g
[6]
  Drug uptake: 0.06 % ID/g
Bone [7]
  Drug uptake: 0.046 % ID/g
Small intestine [8]
  Drug uptake: 0.924 % ID/g
Plasma [9]
  Stability: Stable
Rattus norvegicus [10]
  Drug uptake: 0.064 % ID/g
Kidney [11]
  Drug uptake: 0.122 % ID/g
Liver [12]
  Drug uptake: 0.505 % ID/g
Brain [13]
  Drug uptake: Not Active
Pancreas [14]
  Drug uptake: 0.11 % ID/g
Brain [15]
  Drug uptake: 0.028 % ID/g
Bone [16]
  Drug uptake: 0.039 % ID/g
[17]
  remaining at 10 min: 55%
Cortex [18]
  Drug uptake: Not Active
[19]
  remaining at 5 min: 72%
Spleen [20]
  Drug uptake: 78%
[21]
  Drug uptake: Active
Rattus norvegicus [22]
  Drug uptake: 0.077 % ID/g
Liver [23]
  Drug uptake: 0.38 % ID/g
[24]
  Drug uptake: 0.08 % ID/g
Heart [25]
  Drug uptake: 0.091 % ID/g
Muscle tissue [26]
  Drug uptake: 0.065 % ID/g
Cortex [27]
  Drug uptake: Active
Hippocampus [28]
  Drug uptake: Active
Brain [29]
  Drug uptake: Not Active
Brain [30]
  Drug uptake: Active
Zone of skin [31]
  Drug uptake: 0.057 % ID/g
Blood [32]
  Drug uptake: 0.03 % ID/g
Rattus norvegicus [33]
  Drug uptake: 0.05 % ID/g
Plasma [34]
  Stability: Stable
Pancreas [35]
  Drug uptake: 0.113 % ID/g
Kidney [36]
  Drug uptake: 0.134 % ID/g
Rattus norvegicus [37]
  Drug uptake: 0.034 % ID/g
Brain [38]
  Drug uptake: 0.025 % ID/g
Cerebellum [39]
  Drug uptake: Not Active
Lung [40]
  Drug uptake: 0.075 % ID/g
Spleen [41]
  Drug uptake: 0.284 % ID/g
Plasma [42]
  Stability: Stable
[43]
  remaining at 20 min: 47%
Hippocampus [44]
  Drug uptake: Not Active
Rattus norvegicus [45]
  Drug uptake: 0.033 % ID/g
Heart [46]
  Drug uptake: 0.08 % ID/g
Adrenal gland [47]
  Drug uptake: 0.216 % ID/g
Brain [48]
  Drug uptake: Active
[49]
  remaining at 20 min: 81%
Small intestine [50]
  Drug uptake: 0.425 % ID/g
[51]
  logD at 0.25 h: 2.78
Muscle tissue [52]
  Drug uptake: 0.071 % ID/g
Spleen [53]
  Drug uptake: 0.062 % ID/g
Rattus norvegicus [54]
  Drug uptake: 0.053 % ID/g
Lung [55]
  Drug uptake: 0.088 % ID/g
